Tests used:
[1] = Acute toxicity in Wistar rat assessed as behavioral changes at 200 mg/kg, po administered for 7 days and observed for 14 days; type: organism-based; settings: in vivo, 336 h, time 14 day
[2] = Acute toxicity in Wistar rat assessed as survival at 200 mg/kg, po administered for 7 days and observed for 14 days; type: organism-based; settings: in vivo, 336 h, time 14 day
[3] = Acute toxicity in Wistar rat assessed as behavioral changes at 100 mg/kg, po administered for 7 days and observed for 14 days; type: organism-based; settings: in vivo, 336 h, time 14 day
[4] = Acute toxicity in Wistar rat assessed as survival at 100 mg/kg, po administered for 7 days and observed for 14 days; type: organism-based; settings: in vivo, 336 h, time 14 day
Rattus norvegicus [5] = assay: Anti-inflammatory activity in Wistar rat assessed as inhibition of carrageenan-induced paw edema at 20 mg/kg, po administered 1 hr prior to carrageenan stimulation and measured after 3 hrs by plethysmometric method relative to control; type: functional; design: scale not given: the % may be the effect or the level left; settings: time 4 hrs
Rattus norvegicus [6] = assay: Anti-inflammatory activity in Wistar rat assessed as inhibition of carrageenan-induced paw edema at 20 mg/kg, po administered 1 hr prior to carrageenan stimulation and measured after 4 hrs by plethysmometric method relative to control; type: functional; design: scale not given: the % may be the effect or the level left; settings: time 5 hrs
Mus musculus = assay: Analgesic activity in Swiss albino mouse assessed as inhibition of acetic acid-induced writhing at 20 mg/kg, po administered 30 mins prior to acetic acid treatment and measured for 20 mins; type: functional; design: scale not given: the % may be the effect or the level left; settings: time 50 min
[7] = Acute toxicity in Swiss albino mouse assessed as behavioral changes at 200 mg/kg, po administered for 7 days and observed for 14 days; type: organism-based; settings: in vivo, 336 h, time 14 day
[8] = Acute toxicity in Swiss albino mouse assessed as survival at 100 mg/kg, po administered for 7 days and observed for 14 days; type: organism-based; settings: in vivo, 336 h, time 14 day
[9] = Acute toxicity in Swiss albino mouse assessed as behavioral changes at 100 mg/kg, po administered for 7 days and observed for 14 days; type: organism-based; settings: in vivo, 336 h, time 14 day
[10] = Ulcerogenic activity in Wistar rat assessed as incidence of gastric ulceration by measuring severity index at 60 mg/kg, po measured after 17 hrs by microscopic analysis; type: toxicity, organism-based; settings: in vivo
[11] = molecular target: Prostaglandin G/H synthase 1 (Homo sapiens, UniProt P23219); assay: Inhibition of COX-1 (unknown origin) assessed as reduction in PGH2 formation using arachidonic acid as substrate preincubated for 5 mins followed by substrate addition and measured after 2 mins by enzyme immunoassay
Prostaglandin G/H synthase 1, sequence (P23219 whole entry): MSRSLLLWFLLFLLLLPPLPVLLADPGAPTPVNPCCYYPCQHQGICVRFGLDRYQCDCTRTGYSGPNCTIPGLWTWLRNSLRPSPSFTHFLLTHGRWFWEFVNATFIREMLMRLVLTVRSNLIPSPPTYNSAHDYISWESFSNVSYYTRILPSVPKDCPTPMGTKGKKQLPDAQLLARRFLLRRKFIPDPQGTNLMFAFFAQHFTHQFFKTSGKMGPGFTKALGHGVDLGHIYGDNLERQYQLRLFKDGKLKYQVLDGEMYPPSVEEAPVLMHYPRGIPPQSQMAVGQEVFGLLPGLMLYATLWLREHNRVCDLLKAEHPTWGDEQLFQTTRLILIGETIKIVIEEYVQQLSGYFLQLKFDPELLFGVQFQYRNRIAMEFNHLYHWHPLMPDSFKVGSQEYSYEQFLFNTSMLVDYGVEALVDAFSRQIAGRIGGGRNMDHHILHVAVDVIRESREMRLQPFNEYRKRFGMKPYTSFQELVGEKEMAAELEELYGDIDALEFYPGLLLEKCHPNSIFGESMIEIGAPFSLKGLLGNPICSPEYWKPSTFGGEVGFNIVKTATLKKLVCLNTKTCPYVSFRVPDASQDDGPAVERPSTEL

[12] = molecular target: T1, Prostaglandin G/H synthase 2 (Homo sapiens, UniProt P35354); assay: Inhibition of COX-2 (unknown origin) assessed as reduction in PGH2 formation using arachidonic acid as substrate preincubated for 5 mins followed by substrate addition and measured after 2 mins by enzyme immunoassay
T1 sequence (P35354 whole entry): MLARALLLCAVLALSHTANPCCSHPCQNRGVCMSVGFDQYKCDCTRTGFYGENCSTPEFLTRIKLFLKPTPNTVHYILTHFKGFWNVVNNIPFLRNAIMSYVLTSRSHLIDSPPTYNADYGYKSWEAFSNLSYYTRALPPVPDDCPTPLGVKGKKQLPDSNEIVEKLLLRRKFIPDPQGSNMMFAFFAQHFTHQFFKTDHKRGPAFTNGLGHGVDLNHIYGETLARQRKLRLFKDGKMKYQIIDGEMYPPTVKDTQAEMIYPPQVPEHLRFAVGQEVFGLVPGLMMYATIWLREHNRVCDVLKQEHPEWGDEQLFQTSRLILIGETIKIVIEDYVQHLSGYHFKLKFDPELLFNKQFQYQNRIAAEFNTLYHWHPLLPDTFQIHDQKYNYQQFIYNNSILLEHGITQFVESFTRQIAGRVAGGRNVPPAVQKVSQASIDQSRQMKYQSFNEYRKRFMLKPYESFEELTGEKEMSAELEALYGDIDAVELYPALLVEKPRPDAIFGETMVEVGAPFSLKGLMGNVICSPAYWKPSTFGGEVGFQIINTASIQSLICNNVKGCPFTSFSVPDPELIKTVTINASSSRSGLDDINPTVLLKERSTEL

[13] = Acute toxicity in Swiss albino mouse assessed as survival at 200 mg/kg, po administered for 7 days and observed for 14 days; type: organism-based; settings: in vivo, 336 h, time 14 day

O=C(/C=C/c1ccc(O)c(O)c1)NNC(=O)COc1cccnc1
Activity [1]: Non-Toxic
Activity [2]: Non-Toxic
Activity [3]: Non-Toxic
Activity [4]: Non-Toxic
Activity (Rattus norvegicus [5]): 63.96%
Activity (Rattus norvegicus [6]): 60.82%
Activity (Mus musculus): 53.41%
Activity [7]: Non-Toxic
Activity [8]: Non-Toxic
Activity [9]: Non-Toxic
Activity_index [10]: 0.4
IC50 [11]: 182 µM
IC50 [12]: 5 µM
Activity [13]: Non-Toxic

O=C(/C=C/c1ccc(O)c(O)c1)NNC(=O)COc1ccc2ccccc2c1
Activity [1]: Non-Toxic
Activity [2]: Non-Toxic
Activity [3]: Non-Toxic
Activity [4]: Non-Toxic
Activity (Rattus norvegicus [5]): 51.61%
Activity (Rattus norvegicus [6]): 48.7%
Activity (Mus musculus): 65.1%
Activity [7]: Non-Toxic
Activity [8]: Non-Toxic
Activity [9]: Non-Toxic
Activity_index [10]: 0.57
Activity [13]: Non-Toxic

O=C(/C=C/c1ccc(O)c(O)c1)NNC(=O)COc1cccc2cccnc12
Activity [1]: Non-Toxic
Activity [2]: Non-Toxic
Activity [3]: Non-Toxic
Activity [4]: Non-Toxic
Activity (Rattus norvegicus [5]): 66.61%
Activity (Rattus norvegicus [6]): 61.47%
Activity (Mus musculus): 57.3%
Activity [7]: Non-Toxic
Activity [8]: Non-Toxic
Activity [9]: Non-Toxic
Activity_index [10]: 0.53
IC50 [11]: 126 µM
IC50 [12]: 4.9 µM
Activity [13]: Non-Toxic

Cc1ccc(OCC(=O)NNC(=O)/C=C/c2ccc(O)c(O)c2)cc1
Activity [1]: Non-Toxic
Activity [2]: Non-Toxic
Activity [3]: Non-Toxic
Activity [4]: Non-Toxic
Activity (Rattus norvegicus [5]): 58.71%
Activity (Rattus norvegicus [6]): 55.53%
Activity (Mus musculus): 64.68%
Activity [7]: Non-Toxic
Activity [8]: Non-Toxic
Activity [9]: Non-Toxic
Activity_index [10]: 0.38
Activity [13]: Non-Toxic

O=C(/C=C/c1ccc(O)c(O)c1)NNC(=O)COc1ccc(Cl)cc1
Activity [1]: Non-Toxic
Activity [2]: Non-Toxic
Activity [3]: Non-Toxic
Activity [4]: Non-Toxic
Activity (Rattus norvegicus [5]): 75.17%
Activity (Rattus norvegicus [6]): 72.29%
Activity (Mus musculus): 67.85%
Activity [7]: Non-Toxic
Activity [8]: Non-Toxic
Activity [9]: Non-Toxic
Activity_index [10]: 0.76
IC50 [11]: 214 µM
IC50 [12]: 3.17 µM
Activity [13]: Non-Toxic

Cc1ccc(OCC(=O)NNC(=O)/C=C/c2ccc(O)c(O)c2)c(C)c1
Activity [1]: Non-Toxic
Activity [2]: Non-Toxic
Activity [3]: Non-Toxic
Activity [4]: Non-Toxic
Activity (Rattus norvegicus [5]): 67.18%
Activity (Rattus norvegicus [6]): 64.45%
Activity (Mus musculus): 45.21%
Activity [7]: Non-Toxic
Activity [8]: Non-Toxic
Activity [9]: Non-Toxic
Activity_index [10]: 0.26
IC50 [11]: 107 µM
IC50 [12]: 2.1 µM
Activity [13]: Non-Toxic

O=C(/C=C/c1ccc(O)c(O)c1)NNC(=O)COc1ccc(Br)cc1
Activity [1]: Non-Toxic
Activity [2]: Non-Toxic
Activity [3]: Non-Toxic
Activity [4]: Non-Toxic
Activity (Rattus norvegicus [5]): 74.9%
Activity (Rattus norvegicus [6]): 71.15%
Activity (Mus musculus): 71.35%
Activity [7]: Non-Toxic
Activity [8]: Non-Toxic
Activity [9]: Non-Toxic
Activity_index [10]: 0.78
IC50 [11]: 233 µM
IC50 [12]: 3.4 µM
Activity [13]: Non-Toxic

O=C(/C=C/c1ccc(O)c(O)c1)NNC(=O)COc1cccc2ccccc12
Activity [1]: Non-Toxic
Activity [2]: Non-Toxic
Activity [3]: Non-Toxic
Activity [4]: Non-Toxic
Activity (Rattus norvegicus [5]): 49.96%
Activity (Rattus norvegicus [6]): 44.45%
Activity (Mus musculus): 50.7%
Activity [7]: Non-Toxic
Activity [8]: Non-Toxic
Activity [9]: Non-Toxic
Activity_index [10]: 0.46
Activity [13]: Non-Toxic

Cc1ccc2cccc(OCC(=O)NNC(=O)/C=C/c3ccc(O)c(O)c3)c2n1
Activity [1]: Non-Toxic
Activity [2]: Non-Toxic
Activity [3]: Non-Toxic
Activity [4]: Non-Toxic
Activity (Rattus norvegicus [5]): 57.19%
Activity (Rattus norvegicus [6]): 53.15%
Activity (Mus musculus): 49.02%
Activity [7]: Non-Toxic
Activity [8]: Non-Toxic
Activity [9]: Non-Toxic
Activity_index [10]: 0.57
Activity [13]: Non-Toxic

Cc1ccccc1OCC(=O)NNC(=O)/C=C/c1ccc(O)c(O)c1
Activity [1]: Non-Toxic
Activity [2]: Non-Toxic
Activity [3]: Non-Toxic
Activity [4]: Non-Toxic
Activity (Rattus norvegicus [5]): 54.96%
Activity (Rattus norvegicus [6]): 49.83%
Activity (Mus musculus): 49.18%
Activity [7]: Non-Toxic
Activity [8]: Non-Toxic
Activity [9]: Non-Toxic
Activity_index [10]: 0.58
Activity [13]: Non-Toxic

Cc1ccc(-c2cc(C(F)(F)F)nn2-c2ccc(S(N)(=O)=O)cc2)cc1 [CELECOXIB]
Activity (Rattus norvegicus [5]): 78%
Activity (Rattus norvegicus [6]): 74.56%
Activity (Mus musculus): 73.53%

Reference: ChEMBL document CHEMBL4673359, “Molecular docking and synthesis of caffeic acid analogous and its anti-inflammatory, analgesic and ulcerogenic studies” (Bioorg Med Chem Lett, 2021)
